Read-outs that look alike come from different tables or passages of the source.
How the values were obtained:
[1] = tested on: V-ATPase; test: Proton transfer inhibition: intracellular pH recovery after ammonium chloride pulse in isolated, microperfused human eccrine sweat reabsorptive ducts (BCECF-type probe); type: cell-based; settings: for Inhibition of proton transfer out of the cells of the reabsorptive duct: significant at the 95% level (Student t-test); for Rate of pH recovery (%): control = 100, after 20 mM basolateral ammonium chloride pulse, 37° C.
Protocol: Human eccrine sweat ducts were isolated using the Kealey shearing technique (Lee C. M., Jones C. J., and Kealey T., J. Cell. Sci., 72, 1984, 259-274). Isolated portions of reabsorptive duct were mounted on a conventional microperfusion apparatus, between glass pipettes. One end of the duct was cannulated with a microperfusion pipette. The ducts were perfused at 37° C. with a control solution containing N-methyl-D-glucamine chloride (114 mM), potassium hydrogenphosphate (2.5 mM), magnesium chloride (1 mM), calcium chloride (1 mM), glucose (5 mM), and N-methyl-D-glucamine lactate (4 mM). Osmolality was adjusted to 300 mOsm/kg with mannitol and the pH adjusted to 7.4 with tris-HEPES. Intracellular pH was measured using the pH sensitive fluorescent probe BCEFC (bis-2-carboxyethyl-carbfluorescein) at 5 μM.
[…].
In the next part of the procedure, the indicated sweat ducts were subjected to acidification by a 20 mM basolateral pulse of ammonium chloride, with the additional presence of a V-ATPase inhibitor.

[2] = tested on: Staphylococcus epidermidis; settings: 80% or greater reduction in growth over 16 to 24 hours at 37° C., cited from earlier work

Chain of V-ATPase (P27449 whole entry, the tested form may be a part): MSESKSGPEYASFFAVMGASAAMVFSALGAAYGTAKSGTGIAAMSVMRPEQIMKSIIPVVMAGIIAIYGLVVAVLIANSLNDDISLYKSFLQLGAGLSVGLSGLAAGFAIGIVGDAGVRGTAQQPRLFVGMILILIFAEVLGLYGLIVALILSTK

CO/C1=C\C(C)=C\[C@@H](C)[C@@H](O)[C@@H](C)C/C(C)=C/C=C/[C@H](OC)[C@@H]([C@@H](C)[C@@H](O)[C@H](C)[C@@]2(O)C[C@@H](O)[C@H](C)[C@@H](C(C)C)O2)OC1=O [Bafilomycin-A1, bafilomycin A1]
Inhibition of proton transfer out of the cells of the reabsorptive duct ([1]; at 6.2 μg/ml): inhibit proton transfer
Rate of pH recovery (%) ([1]; inhibitor at 6.2 μg/ml): 27%

CC(C)=CCCC(C)=CCCC(C)=CCO [farnesol, 3,7,11-trimethyldodeca-2,6,10-trienol]
MIC ([2]; literature values): ca. 25 μg.ml^−1

CCO [ethanol]
MIC ([2]; stated without source): greater than 1 mg.ml^−1

olygomycin
Inhibition of proton transfer out of the cells of the reabsorptive duct ([1]; at 20 μg/ml): inhibit proton transfer
Rate of pH recovery (%) ([1]; inhibitor at 20 μg/ml): 12%

Oc1cc(Cl)ccc1Oc1ccc(Cl)cc1Cl [triclosan, 2′,4,4′-trichloro,2-hydroxy-diphenyl ether]
MIC ([2]; literature values): 0.01 to 10 µg/mL

C/C=C/[C@H]1O[C@@](O)([C@@H](C)[C@H](O)[C@H](C)[C@H]2OC(=O)/C(OC)=C/C(C)=C/[C@@H](C)[C@@H](O)[C@@H](CC)[C@@H](O)[C@H](C)C/C(C)=C/C=C/[C@@H]2OC)C[C@@H](O[C@H]2C[C@@H](O)[C@H](OC(N)=O)[C@@H](C)O2)[C@@H]1C [Concanamycin-A, concanamycin A]
Inhibition of proton transfer out of the cells of the reabsorptive duct ([1]; at 0.1 μg/ml): inhibit proton transfer
Rate of pH recovery (%) ([1]; inhibitor at 0.1 μg/ml): 5%

Reference: patent US6509010B2, “Cosmetic products for the reduction of sweat acidity” (Unilever Home & Personal Care USA, division of Conopco, Inc., priority 2001, dated 2003)
